Our source for the melting point values is a melting point compilation (Tetko et al.; mined from patent text by program, amines drawn as free bases though some values may be those of a salt).

As a reminder, the melting point is the temperature of the solid-liquid transition. The compound `CCOCc1nc2c(c(C)c(C)n3nnnc23)n1CCNC(=O)OC(C)(C)C` came in with a melting point of 197 to 199 °C.

In the case of `Fc1ccc(N2CCN(Cc3cn4cc(Cl)cc(Cl)c4n3)CC2)cc1`, the melting point lay in the range of 126 to 128 °C.

Regarding `Cc1noc(NS(=O)(=O)c2ccccc2-c2ccc(-c3ncco3)cc2CC#N)c1C`, the melting point was 103 to 110 °C.

`CC(C)Cn1cnc2c(O)nc3ccccc3c21` came in with a melting point of over 300 °C.

In turn, `O=C(c1ccc(-c2ccccc2)cc1)C1(n2cncn2)CC1` came in with a melting point of 154 to 155 °C.

As for `CC1(C)Oc2ccncc2[C@@H](N2CCCC2=O)[C@@H]1O` (relative stereo), the melting point turned out to be 253 °C.

`N#CC(=CN1CCOCC1)Cc1ccc2c(c1)OCO2`: the melting point was in the range of 85 to 85.5 °C.

The compound `COc1cc(Cl)nc(NC(=O)NS(=O)(=O)c2ccccc2-c2nnnn2C)n1` showed a melting point of 225 to 227 °C.

For the compound `CON1C(C)(C)CC(OC(=O)c2ccccc2)CC1(C)C`, the melting point is 67 to 68 °C.

In turn, `CCOC1CCC2C3CCc4cc(OC)ccc4C3CCC12CC` (stereo not given) gave a melting point of 74 to 77 °C.

For `Cn1cc(C2=C(c3cn(C(=O)C(C)(C)C)c4cc([N+](=O)[O-])ccc34)C(=O)NC2=O)c2ccccc21`, the melting point was over 245 °C.

In turn, `CS(=O)Cc1cc(C(F)(F)F)ccc1N` (stereo not given) displayed a melting point of 122 to 125 °C.

On to `Cc1cccc(N2CCC(N)=N2)c1`, for which the melting point lay in the range of 119 to 120 °C.

Turning to `O=C(CBr)c1ccc2c(c1)CCCS2`, the melting point is 92 to 94 °C.

Turning to `CN(C)c1ccc(-c2nnc(N3CCC(O)CC3)nc2-c2ccc(N(C)C)cc2)cc1`, the melting point fell in the range of 186 to 188 °C.

`COCCOCOc1ccc2cc(C(=O)O)ccc2c1` displayed a melting point of 110 °C.

`CC1(CC(=O)Nc2ccccc2)OCCc2c1[nH]c1ccccc21` (stereo not given) showed a melting point of 205 to 208 °C.

As to `C=CCc1cc2c(c(CC=C)c1O)CCC(=O)N2CCCn1cnnc1`, the melting point was 129 to 132 °C.

Regarding `Clc1ccc(/C=C/C2=CCN(Cc3ccc(Cl)cc3)CC2)cc1`, the melting point was determined as 127 °C.

The compound `COc1ccc(NS(=O)(=O)c2ccc(N3CCC(NC[C@H](O)COc4cccc5[nH]c6ccccc6c45)CC3)cc2)cc1OC` came in with a melting point of 58 to 64 °C.

With `CCOC(=O)C(=CNc1cc(C)no1)C(=O)OCC`, the melting point is 134 to 136 °C.

`NCC1CN(c2cc(F)c(-c3cccnc3)c(F)c2)C(=O)O1` (stereo not given) gave a melting point of 143 to 145 °C.

Turning to `CCOC(=O)C(=CNC1CC1)C(=O)c1c(N)c(F)c(F)c(OC(F)F)c1F`, the melting point lay in the range of 103 to 104 °C.

Turning to `CCCCCCCCCCCc1cc2ccc(C(=O)OC)cc2[nH]1`, the melting point was 84 to 86 °C.

Compound `COCCN(CC1=CCC(N)(Oc2ccccc2)C=C1)C(=O)C(Cl)Cl` (stereo not given) registered a melting point of 100 to 102 °C.

Regarding `Oc1ccc(C2CCCN2CCN2CCOCC2)cc1` (stereo not given), the melting point lay in the range of 107 to 108 °C.

The compound `CC(=O)SCCC(=O)N1CCC=C1C(=O)O` had a melting point of 89 to 91 °C.

Compound `Fc1ccc(F)c(-c2coc3ccc(-c4nnc(S)o4)cc23)c1` displayed a melting point of 206 to 207 °C.

The compound `N#CN=CNCc1cc(Cl)nc(Cl)c1` came in with a melting point of 160 °C.

The compound `CCC(=O)c1c(O)oc(=O)c(C(=O)CC)c1O` returned a melting point of 114 to 115 °C.

`COc1ccccc1NC(=O)C1CCc2nc[nH]c2C1` (stereo not given) registered a melting point of 100 to 102 °C.

In the case of `CS(=O)(=O)c1ccc(-c2c(-c3ccc(F)cc3)c(OCC(=O)c3ccc(F)cc3)nn2CC(=O)c2ccc(F)cc2)cc1`, the melting point lay within 194 to 196 °C.

Compound `Clc1cccc2c1Oc1ccccc1N=C2N1CCN2CCC[C@H]2C1` came in with a melting point of 150 to 151 °C.

`Cc1cc(C)c(-c2c(O)c(Cl)c(-c3ccc(Cl)cc3)oc2=O)c(C)c1`: the melting point lay in the range of 229 to 231 °C.

On to `Nc1nnc(C(F)(F)Oc2ccccc2)s1`, for which the melting point was in the range of 149 to 151 °C.

Take `O=CCOc1ccc(Cl)cc1`: the melting point fell in the range of 122 to 128 °C.

Compound `COc1ccc(Cn2cnc3c(-c4ccco4)nc(C(C)C)nc32)cc1` had a melting point of 123 °C.

With `Cc1c(CC(=O)NCCO[N+](=O)[O-])cc(-c2ccc(S(C)(=O)=O)cc2)n1-c1ccccc1`, the melting point worked out at 89 °C.

In turn, `COc1cc(C(=O)CCCc2ccccc2)ccc1OCc1ccccc1` gave a melting point of 81 to 82 °C.

On to `OC(c1ccc2cc(-c3n[nH]c4ccsc34)[nH]c2c1)(C1CC1)C1CC1`, for which the melting point was 110 to 112 °C.

Turning to `CN1N=C(c2ccc3c(c2)N(S(C)(=O)=O)CCO3)CCC1=O`, the melting point was in the range of 162 to 165 °C.

`N=C(N)N1CCC(CCC(=O)O)CC1` gave a melting point of over 275 °C.

The compound `CCCCCC(CC(=O)Nc1cc(C(N)=O)ccc1C(C)(C)C)c1cccc(OC)c1OC` (stereo not given) returned a melting point of 89 to 90 °C.

As to `Fc1cccc(F)c1N1CS/C1=N/N=C\c1ccc(-c2ncn(-c3ccc(OC(F)(F)F)cc3)n2)cc1`, the melting point lay in the range of 144 to 146 °C.

Take `Cc1sc(S(N)(=O)=S)cc1C(C)O` (stereo not given): the melting point lay within 100 to 102 °C.

In the case of `COc1ccc(-c2ccc3cc(CO)ccc3c2)cc1C12CC3CC(CC(C3)C1)C2`, the melting point was in the range of 169 to 171 °C.

`NC1CCn2c(CCc3ccccc3)nc3cccc1c32` (stereo not given) yielded a melting point of 43.6 to 45.6 °C.

On to `O=c1cc(-c2ccccc2)oc2c(CN3CCC(O)CC3)c(O)c(O)c(O)c12`, for which the melting point is 221 °C.

Compound `Cn1cc(C(=O)NS(=O)(=O)c2cccs2)cn1` registered a melting point of 174 to 180 °C.

`O=C1COC2(CCN(CC(=O)c3ccc(F)cc3)CC2)CN1` returned a melting point of 206 to 210 °C.

Take `CCC1c2cccn2-c2c(cc(F)c(F)c2F)N1S(=O)(=O)c1ccc(O)cc1` (stereo not given): the melting point lay within 155 to 156 °C.

Turning to `O=[N+]([O-])c1cc(F)c(O)c(F)c1`, the melting point is 98.4 to 101 °C.

Consider `Nc1ccc(-c2nccc3[nH]c(=O)ccc23)cc1`, for which the melting point lay in the range of 309 to 312 °C.

The compound `CCN1C(Oc2ccc(C)cc2)=NS(=O)(=O)N=C1Oc1ccc(C)cc1` came in with a melting point of 302 to 304 °C.

`Cc1cc(-c2nc3ccccc3c(=O)[nH]2)cc(C)c1OCCO`: the melting point was in the range of 260 to 261 °C.

In the case of `Cc1c(C)c2c(c(C)c1OCc1ccccc1)C(CN1CCCC1CO)C(C)(C)O2` (mixture of isomers), the melting point lay in the range of 99 to 101 °C.

Compound `CCCCc1ncc(CC(NC(=O)C(c2ccccc2)c2ccccc2)C(=O)O)n1Cc1ccccc1Cl` (stereo not given) had a melting point of 222 to 225 °C.

Consider `Cc1nc(N2CCCC2)c2ccc(Br)cc2n1`, for which the melting point was 120 to 122 °C.

`CCC1(C)CC(NC(=O)c2cccc([N+](=O)[O-])c2O)CC(C)(C)C1` (stereo not given) yielded a melting point of 125 to 128 °C.

In the case of `N#Cc1c(O)ccc2ccccc12`, the melting point lay within 160 to 161 °C.

`Cc1cc(OCc2ccc(-c3ccc(OC(F)(F)F)cc3)nc2C2CC2)ccc1OC(C)(C)C(=O)O`: the melting point was in the range of 131 to 133 °C.

In the case of `CN1CCN(c2cc3c(F)cccc3c(=O)[nH]2)CC1CO` (stereo not given), the melting point was 216 to 217 °C.

Take `Cc1ccc(S(=O)(=O)NCCC(C(=O)NO)C2(CC(C)C)CCN(CCc3ccccc3)C2=O)cc1` (stereo not given): the melting point fell in the range of 166 to 167 °C.

Regarding `CC(C)(C)OC(=O)N[C@@H](Cc1ccccc1)[C@H]1CO1`, the melting point is 126 °C.

As for `CC1(C)Cc2sccc2C=[N+]1[O-]`, the melting point was 130 to 131 °C.
